Reference: ChEMBL document CHEMBL1201862, “PubChem BioAssay data set” (2004)
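Protocol summary: plate cells (96-well), add compound at 5 concentrations, incubate 48 h, interpolate endpoints linearly. GI50 is the concentration that inhibits growth by half.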 The source made the active and inactive calls. Cut-off read from the data, not from the text of the source: active = GI50 up to about 1.1 µM and inactive = higher. Positions of bridges follow the written chain, without caps; N, C: chain ends. Non-standard residues stand in square brackets, D forms with d. Residues, ends and D or L forms follow the SMILES beside them. ξ: configuration not given here. *: point of attachment. X28 = O=C(/C=C/C=C/C=C/C=C/C=C/C(=O)*)NC1=C(O)CCC1=O; Pro(4R-Me) = C[C@H]1CN[C@H](C(=O)O)C1; NMeA = CN[C@@H](C)C(=O)O; ξF = NC(Cc1ccccc1)C(=O)O; ξA = CC(N)C(=O)O

Key:
Assay in all cases: NCI tumour cell line growth inhibition, 48 h
[1] = tested on: SNB-19
[2] = tested on: HOP-92
[3] = tested on: NCI-H23
[4] = tested on: MCF7
[5] = tested on: OVCAR-5
[6] = tested on: HL-60
[7] = tested on: HT-29
[8] = tested on: A549
[9] = tested on: UACC-62
[10] = tested on: HCT-15
[11] = tested on: HCT-116
[12] = tested on: M14
[13] = tested on: MDA-MB-231
[14] = tested on: UACC-257
[15] = tested on: OVCAR-3
[16] = tested on: SW-620
[17] = tested on: OVCAR-8
[18] = tested on: LOX IMVI
[19] = tested on: 786-0
[20] = tested on: HCC 2998

Row | SMILES | GI50 [1] | GI50 [2] | GI50 [3] | GI50 [4] | GI50 [5] | GI50 [6] | GI50 [7] | GI50 [8] | GI50 [9] | GI50 [10] [µM] | GI50 [11] | GI50 [12] | GI50 [13] | GI50 [14] | GI50 [15] | GI50 [16] | GI50 [17] | GI50 [18] | GI50 [19] | GI50 [20]
1 | COc1ccc(OC)c(-c2cc(C(=O)O)c3cc4ccccc4cc3n2)c1 | > 100 µM (inactive) | > 100 µM (inactive) | > 100 µM (inactive) | > 100 µM (inactive) | > 100 µM (inactive) | > 100 µM (inactive) | > 100 µM (inactive) | > 100 µM (inactive) | > 100 µM (inactive) | > 100 | > 100 µM (inactive) | > 100 µM (inactive) | > 100 µM (inactive) | > 100 µM (inactive) | > 100 µM (inactive) | > 100 µM (inactive) | > 100 µM (inactive) | > 100 µM (inactive) | > 100 µM (inactive) | 
2 | CCSc1n/c(=C\c2ccc(N(C)C)cc2)c2nnnn12 | > 100 µM (inactive) | > 100 µM (inactive) | > 100 µM (inactive) | > 100 µM (inactive) | > 100 µM (inactive) | > 100 µM (inactive) | > 100 µM (inactive) | > 100 µM (inactive) | > 100 µM (inactive) | > 100 | > 100 µM (inactive) | > 100 µM (inactive) | > 100 µM (inactive) | > 100 µM (inactive) | > 100 µM (inactive) | > 100 µM (inactive) | > 100 µM (inactive) |  | > 100 µM (inactive) | > 100 µM (inactive)
3 | O=C1CC(c2ccc(Cl)cc2)C2(C(=O)NC(=O)NC2=O)C(c2ccc(Cl)cc2)C1 (configuration not stated) | 32.3 µM (inactive) | 14.7 µM (inactive) | 34 µM (inactive) | 22.3 µM (inactive) | 31.3 µM (inactive) | 19.5 µM (inactive) | 23 µM (inactive) |  | 40.5 µM (inactive) | 22.9 | 31.6 µM (inactive) | 27.7 µM (inactive) | 13.4 µM (inactive) | 30.8 µM (inactive) | 24.9 µM (inactive) | 26.2 µM (inactive) | 27.5 µM (inactive) | 31.4 µM (inactive) | 25.1 µM (inactive) | 27.9 µM (inactive)
4 | C[C@]12CCC(=O)O[C@H]1CCCCO2 |  | 28.1 µM (inactive) |  | > 100 µM (inactive) | > 100 µM (inactive) | > 100 µM (inactive) | > 100 µM (inactive) | > 100 µM (inactive) | > 100 µM (inactive) | > 100 | > 100 µM (inactive) | > 100 µM (inactive) | > 100 µM (inactive) | > 100 µM (inactive) | > 100 µM (inactive) | > 100 µM (inactive) | > 100 µM (inactive) | > 100 µM (inactive) | > 100 µM (inactive) | > 100 µM (inactive)
5 | COc1cc2c(c(OC)c1OC)-c1ccc(OC)c(=O)cc1C(NC(=O)c1ccc(N=[N+]=[N-])cc1)CC2 (configuration not stated) | 0.0767 µM (active) | 0.0396 µM (active) | 0.0327 µM (active) | 0.0144 µM (active) |  | 0.0272 µM (active) | 0.0288 µM (active) | 0.0408 µM (active) | 0.0275 µM (active) | 0.111 | 0.0334 µM (active) | 0.037 µM (active) | 0.0352 µM (active) | 0.615 µM (active) | 0.0255 µM (active) | 0.0312 µM (active) | 0.0335 µM (active) | 0.0423 µM (active) | 0.0446 µM (active) | 0.0215 µM (active)
6 | CCOC(=O)c1cn2c(n1)sc1cc(C)c(C)cc12 | 20 µM (inactive) | 25.4 µM (inactive) | 35.7 µM (inactive) | 23.6 µM (inactive) | 16.8 µM (inactive) |  | 18 µM (inactive) | 18.9 µM (inactive) | 28.3 µM (inactive) | 27.9 | 17.9 µM (inactive) | 26.5 µM (inactive) | 24.3 µM (inactive) | 31.8 µM (inactive) | 17.5 µM (inactive) | 20.1 µM (inactive) | 24.2 µM (inactive) | 29.1 µM (inactive) | 19 µM (inactive) | 66.1 µM (inactive)
7 | O=CC12C3CCC1C2C(=O)C3 (configuration not stated) | > 100 µM (inactive) | > 100 µM (inactive) | > 100 µM (inactive) | > 100 µM (inactive) | > 100 µM (inactive) |  | > 100 µM (inactive) | > 100 µM (inactive) | > 100 µM (inactive) | > 100 | > 100 µM (inactive) | > 100 µM (inactive) | > 100 µM (inactive) | > 100 µM (inactive) | > 100 µM (inactive) | > 100 µM (inactive) | > 100 µM (inactive) | > 100 µM (inactive) | > 100 µM (inactive) | > 100 µM (inactive)
8 | O=C(NCCCN(CCCCN(CCCNC(=O)C(F)(F)F)Cc1ccc2ccccc2c1)Cc1ccc2ccccc2c1)C(F)(F)F |  | > 100 µM (inactive) |  | 1.95 µM (inactive) | > 100 µM (inactive) | 0.74 µM (active) | 1.44 µM (inactive) | > 100 µM (inactive) | 2.31 µM (inactive) | 6.12 | 4.45 µM (inactive) | 1.99 µM (inactive) | > 100 µM (inactive) | 2.28 µM (inactive) | > 100 µM (inactive) | > 100 µM (inactive) | > 100 µM (inactive) | 4.36 µM (inactive) | > 100 µM (inactive) | 1.53 µM (inactive)
9 | O=C1CN(c2ccccc2)Cc2nc(Cl)ccc2N1 | > 100 µM (inactive) | 57.4 µM (inactive) |  | > 100 µM (inactive) | > 100 µM (inactive) | > 100 µM (inactive) | > 100 µM (inactive) | > 100 µM (inactive) | 95.5 µM (inactive) | > 100 | > 100 µM (inactive) | > 100 µM (inactive) | > 100 µM (inactive) | > 100 µM (inactive) |  | > 100 µM (inactive) | > 100 µM (inactive) | > 100 µM (inactive) | > 100 µM (inactive) | > 100 µM (inactive)
10 | Cc1ccc(S(=O)(=O)N(CC(O)COc2ccccc2)c2c(F)cccc2F)cc1 (configuration not stated) | 33.3 µM (inactive) | 0.114 µM (active) | 18.5 µM (inactive) | 15.7 µM (inactive) | 38 µM (inactive) | 29.4 µM (inactive) | 17.4 µM (inactive) | 17.3 µM (inactive) | 14.8 µM (inactive) | 16.1 |  | 15.5 µM (inactive) | 17.9 µM (inactive) | 21.8 µM (inactive) | 11.6 µM (inactive) | 23 µM (inactive) | 17 µM (inactive) | 15.2 µM (inactive) | 20.7 µM (inactive) | 21.1 µM (inactive)
11 | Cc1ccc(-c2cc[n+]3c(n2)oc2ccccc23)cc1 | 69.8 µM (inactive) | 14.2 µM (inactive) | 39.9 µM (inactive) | 30.8 µM (inactive) | 39.7 µM (inactive) | 10.8 µM (inactive) |  | 53.3 µM (inactive) | 24.2 µM (inactive) | > 100 | 29.8 µM (inactive) | 25.9 µM (inactive) | 75.2 µM (inactive) | 18.8 µM (inactive) | 17.7 µM (inactive) | 8.93 µM (inactive) | 21.2 µM (inactive) | 35.7 µM (inactive) | 14.7 µM (inactive) | 30.5 µM (inactive)
12 | COc1ccc(-c2cc(-c3ccccc3)nc3c2CC(=O)Nc2ccccc2-3)cc1OC |  | 5.46 µM (inactive) | > 100 µM (inactive) | > 20 µM (inactive) | > 100 µM (inactive) |  | 0.719 µM (active) |  | > 100 µM (inactive) | > 100 |  | > 100 µM (inactive) | 1.32 µM (inactive) | > 100 µM (inactive) | 4.07 µM (inactive) | > 21.4 µM (inactive) | 0.125 µM (active) | 2 µM (inactive) | 4.79 µM (inactive) | > 100 µM (inactive)
13 | CC(C)=CCN=C(N)N | > 100 µM (inactive) | > 100 µM (inactive) | > 100 µM (inactive) | > 100 µM (inactive) |  | 45.8 µM (inactive) | > 100 µM (inactive) | > 100 µM (inactive) | > 100 µM (inactive) | > 100 | > 100 µM (inactive) |  | > 100 µM (inactive) | > 100 µM (inactive) |  | > 100 µM (inactive) | > 100 µM (inactive) | > 100 µM (inactive) | > 100 µM (inactive) | > 100 µM (inactive)
14 | CC1NC(=O)[C@H](C)N(C)C(=O)[C@@H]2CCCN2C(=O)[C@@H](NC(=O)C(Cc2ccccc2)NC(=O)/C=C/C=C/C=C/C=C/C=C/C(=O)NC2=C(O)CCC2=O)COC(=O)[C@@H]2C[C@@H](C)CN2C1=O (stereo partly drawn) (X28-[ξF]SP[NMeA][ξA][Pro(4R-Me)]; ester 2-C) | > 100 µM (inactive) | > 100 µM (inactive) | > 100 µM (inactive) | > 100 µM (inactive) | > 100 µM (inactive) | > 100 µM (inactive) | > 100 µM (inactive) | > 100 µM (inactive) | > 100 µM (inactive) | > 100 | > 100 µM (inactive) | > 100 µM (inactive) | > 100 µM (inactive) | > 100 µM (inactive) | > 100 µM (inactive) | > 100 µM (inactive) |  | > 100 µM (inactive) | > 100 µM (inactive) | > 100 µM (inactive)
15 | O=C(NCP(=O)(O)O)c1cccnc1 [(NICOTINAMIDOMETHYL)PHOSPHONIC ACID] | > 100 µM (inactive) | > 100 µM (inactive) | > 100 µM (inactive) | > 100 µM (inactive) | > 100 µM (inactive) | > 100 µM (inactive) | > 100 µM (inactive) | > 100 µM (inactive) | > 100 µM (inactive) | > 100 | > 100 µM (inactive) | > 100 µM (inactive) | > 100 µM (inactive) | > 100 µM (inactive) | > 100 µM (inactive) | > 100 µM (inactive) | > 100 µM (inactive) | > 100 µM (inactive) | > 100 µM (inactive) | 
